Data: patent US8815857B2 (Boehringer Ingelheim International GmbH, priority 2011, dated 2014)
Values after ≈ are worked out from the molar mass of the structure shown.

What was measured:
[1] = Assessment of solubility: HT solubility in pION buffer, UV spectrophotometry; settings: 16-19 h incubation, 1.0% DMSO; for solubility: pION system solution buffer, kinetic from dmso stock
[2] = target: T1, Recombinant human soluble guanylate cyclase (sGC), alpha 1 / beta 1 subunits, heme-free (Homo sapiens, UniProt Q02108+Q02153); test: Molecular assay: cGMP formation by heme-free recombinant sGC (CisBio cGMP detection kit); type: biochemical; settings: 300 pM heme-free sGC, 37° C., 60 min, cGMP readout; read-out: EC50 nM, Activity of Compounds in Molecular Assay
T1 construct: histidine tag (C); made in house; host or cells: Sf9 insect cells (baculovirus coinfection)
T1 sequence (Q02108 1-690 partner): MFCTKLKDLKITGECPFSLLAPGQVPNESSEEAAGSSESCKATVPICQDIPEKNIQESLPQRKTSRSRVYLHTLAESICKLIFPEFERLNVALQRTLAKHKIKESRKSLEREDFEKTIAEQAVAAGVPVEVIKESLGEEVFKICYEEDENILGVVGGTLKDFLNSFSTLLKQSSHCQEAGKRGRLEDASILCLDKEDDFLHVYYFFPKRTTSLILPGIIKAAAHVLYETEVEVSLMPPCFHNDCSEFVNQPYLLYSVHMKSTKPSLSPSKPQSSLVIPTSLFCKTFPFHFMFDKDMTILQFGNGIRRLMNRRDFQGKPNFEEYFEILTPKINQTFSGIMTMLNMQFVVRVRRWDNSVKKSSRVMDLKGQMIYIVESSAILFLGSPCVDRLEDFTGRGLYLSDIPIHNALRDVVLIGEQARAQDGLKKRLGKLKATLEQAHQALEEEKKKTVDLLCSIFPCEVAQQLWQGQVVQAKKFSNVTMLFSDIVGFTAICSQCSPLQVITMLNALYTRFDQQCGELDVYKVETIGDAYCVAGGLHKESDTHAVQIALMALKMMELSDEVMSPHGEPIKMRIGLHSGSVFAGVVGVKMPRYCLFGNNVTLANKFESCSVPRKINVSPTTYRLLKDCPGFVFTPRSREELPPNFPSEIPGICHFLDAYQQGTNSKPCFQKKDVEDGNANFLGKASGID
T1 sequence (Q02153 1-619): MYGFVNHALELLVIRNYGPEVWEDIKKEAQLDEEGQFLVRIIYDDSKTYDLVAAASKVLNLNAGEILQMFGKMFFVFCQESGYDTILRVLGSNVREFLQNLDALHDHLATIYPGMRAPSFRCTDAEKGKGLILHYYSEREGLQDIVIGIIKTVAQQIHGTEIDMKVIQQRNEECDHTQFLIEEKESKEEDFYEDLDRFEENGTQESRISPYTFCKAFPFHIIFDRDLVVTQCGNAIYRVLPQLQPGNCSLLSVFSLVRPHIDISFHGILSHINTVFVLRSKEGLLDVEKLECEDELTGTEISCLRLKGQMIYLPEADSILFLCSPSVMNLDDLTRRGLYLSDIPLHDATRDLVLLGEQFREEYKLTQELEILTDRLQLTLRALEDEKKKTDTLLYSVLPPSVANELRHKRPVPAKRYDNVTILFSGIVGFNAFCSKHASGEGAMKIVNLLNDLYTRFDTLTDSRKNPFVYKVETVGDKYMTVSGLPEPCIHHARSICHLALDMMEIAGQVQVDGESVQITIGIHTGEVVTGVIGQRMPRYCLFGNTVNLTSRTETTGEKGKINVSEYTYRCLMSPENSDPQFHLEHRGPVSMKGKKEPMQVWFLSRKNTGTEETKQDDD
Outline: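 cGMP generated over 60 min at 37° C (pH 6.8 MOPS buffer, 50 nM GTP, 1.25 mM IBMX, 1% DMSO) by 300 pM heme-free sGC, expressed in Sf9 and heme-stripped with 0.5% Tween 20. HTRF ratios converted to nM cGMP; EC50 fitted from log concentration.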

[3] = target: T2, human soluble guanylate cyclase alpha 1 and beta 1 subunits (sGC) stably expressed in Chinese hamster ovary cells (Homo sapiens, UniProt Q02108+Q02153); test: sGC cellular activator assay: cGMP in CHO cells expressing human sGC, preincubated with ODQ; type: cell-based; settings: 40 microM ODQ preincubation, 30 min at room temperature, presence or absence of 50% human serum not given, read-out: EC50 nM, Activity of Compounds in Cellular Assay
T2 construct: expressed in transfected cells; host or cells: Chinese hamster ovary cells, stably transfected
T2 sequence (Q02108 1-690 partner): T1 sequence (Q02108 1-690 partner)
T2 sequence (Q02153 1-619): T1 sequence (Q02153 1-619)
Method: The sGC cellular activator assay is performed in the presence and absence of 50% human serum (HS) using Chinese hamster ovary cells that have been stably transfected to express the human soluble guanylate cyclase alpha 1 and beta 1 subunits (sGC). Cells are preincubated with 40 microM 1H-[1,2,4]oxadiazolo[4,3-a]quinoxalin-1-one (ODQ), an sGC inhibitor, for one hour in buffer containing 0.1% bovine serum albumin and 3-isobutyl-1-methylxanthine (IBMX). Concentration response curves are prepared for test compounds in DMSO. An intermediate dilution of the compounds is performed in either buffer containing IBMX or type AB HS containing IBMX. Diluted compounds are added to cells and they are incubated at room temperature for thirty minutes. cGMP is measured using a CisBio homogeneous time resolved fluorescence kit and the EC50 is calculated for each compound.

[4] = pH 4.5, pH 4.5, aqueous buffer, Solubility (pH 4.5), pH 4.5 buffer
[5] = pH 7.4, pH 7.4, aqueous buffer, Solubility (pH 7.4), pH 7.4 buffer

Compound | solubility [1, 4] [µg/mL] | solubility [1, 5] [µg/mL] | EC50 [2] [nM] | Solubility (pH 4.5) ([1]; pH 4.5 buffer) [μg/mL] | EC50 [3] [nM]
Cc1ccc(OCc2ccc(C(=O)N3CCCCC3)cc2C)c(-c2csc(N3CCC(C(=O)O)C(C(F)(F)F)C3)n2)c1 (stereo not shown) [Compound 142] | 2 (≈ 3.32 µM) | > 60 | 160 |  | 
Cc1cc(CN2CCS(=O)(=O)CC2)ccc1COc1ccc(Cl)cc1-c1csc(N2CCC(C(=O)O)CC2C)n1 (stereo not shown) [Compound 143] | 0.2 (≈ 0.331 µM) | 36 (≈ 59.6 µM) | 38 |  | 
Cc1cc(C(=O)N2CCCCC2)ccc1COc1ccc(F)cc1-c1csc(N2CCC(C(=O)O)C(C(F)(F)F)C2)n1 (stereo not shown) [Compound 145] | 0.25 (≈ 0.413 µM) | > 60 | 650 |  | 
Cc1cc(CN2CCS(=O)(=O)CC2)ccc1COc1ccc(C#N)cc1-c1csc(N2CC3CCC(C2)C3C(=O)O)n1 (stereo not shown) [Compound 146] | 0.75 (≈ 1.24 µM) | > 60 | 2000 |  | 
Cc1cc(CN2CCS(=O)(=O)CC2)ccc1COc1ccc(C#N)cc1-c1csc(N2C3CCC2CC(C(=O)O)C3)n1 (stereo not shown) [Compound 147] | 1 (≈ 1.65 µM) | > 60 | 1200 |  | 
Cc1cc(C(=O)N2CCCCC2)ccc1COc1ccc(C#N)cc1-c1csc(N2CCC(C(=O)O)C(C(F)(F)F)C2)n1 (stereo not shown) [Compound 148] | 0.3 (≈ 0.49 µM) | > 61 | 4100 |  | 
Cc1cc(C(=O)N2CCCCC2)ccc1COc1ccc(Cl)cc1-c1csc(N2CCC(C(=O)O)C(C(F)(F)F)C2)n1 (stereo not shown) [Compound 149] |  | > 62 | 380 | 0.1 | 
Cc1cc(CN2CCS(=O)(=O)CC2)ccc1COc1ccccc1-c1csc(N2CCC(C(=O)O)C(C(F)(F)F)C2)n1 (stereo not shown) [Compound 150] | 1.4 (≈ 2.24 µM) | > 62 | 1200 |  | 
Cc1cc(CN2CCS(=O)(=O)CC2)ccc1COc1c(-c2csc(N3CCC(C(=O)O)CC3)n2)cccc1C(F)(F)F [Compound 151] | 0.15 (≈ 0.24 µM) | > 62 | 9.9 |  | 
Cc1cc(CN2CCS(=O)(=O)CC2)ccc1COc1ccccc1-c1csc(N2CCC(C(=O)O)CC2C(F)(F)F)n1 (stereo not shown) [Compound 152] | 0.3 (≈ 0.481 µM) | > 62 | 170 |  | 
Cc1ccc(OCc2ccc(CN3CCS(=O)(=O)CC3)cc2C)c(-c2csc(N3CCC(C(=O)O)CC3C(F)(F)F)n2)c1 (stereo not shown) [Compound 153] | 0.2 (≈ 0.314 µM) | > 63 | 43 |  | 
Cc1ccc(OCc2ccc(CN3CCS(=O)(=O)CC3)cc2C)c(-c2csc(N3CCC(C(=O)O)C(C(F)(F)F)C3)n2)c1 (stereo not shown) [Compound 154] | 0.8 (≈ 1.25 µM) | > 63 | 530 |  | 
Cc1cc(CN2CCS(=O)(=O)CC2)ccc1COc1ccc(C#N)cc1-c1csc(N2CCC(C(=O)O)C(C(F)(F)F)C2)n1 (stereo not shown) [Compound 156] | 0.45 (≈ 0.694 µM) | > 64 | 3100 |  | 
Cc1cc(CN2CCS(=O)(=O)CC2)ccc1COc1ccc(Cl)cc1-c1csc(N2CCC(C(=O)O)C(C(F)(F)F)C2)n1 (stereo not shown) [Compound 157] | 0.15 (≈ 0.228 µM) | > 65 | 940 |  | 
Cc1cc(CN2CCOCC2)ccc1COc1ccccc1-c1csc(N2CCC(C(=O)O)CC2)n1 [Compound 166] | > 55 | > 55 | 520 |  | 
Cc1ccc(OCc2ccc(CN3CCOCC3)cc2C#N)c(-c2csc(N3CCC(C(=O)O)CC3)n2)c1 [Compound 167] | 41 (≈ 77 µM) | > 64 | 52 |  | 
Cc1cc(CN2CCOCC2)ccc1COc1ccc(C#N)cc1-c1csc(N2CCC(C(=O)O)CC2)n1 [Compound 168] | 36 (≈ 67.6 µM) | > 57 | 730 |  | 

Compound | solubility [1, 4] [µg/mL] | solubility [1, 5] [µg/mL] | EC50 [2] [nM] | Solubility (pH 4.5) ([1]; pH 4.5 buffer) [μg/mL] | EC50 [3] [nM]
COCCN(C)Cc1ccc(COc2ccc(C#N)cc2-c2csc(N3CCC(C(=O)O)CC3)n2)c(C)c1 [Compound 171] | 34 (≈ 63.6 µM) | 36 (≈ 67.3 µM) | 2400 |  | 
COCCNCc1ccc(COc2ccc(C#N)cc2-c2csc(N3CCC(C(=O)O)CC3)n2)c(C)c1 [Compound 172] | 41 (≈ 78.7 µM) | > 63 | 5600 |  | 
Cc1ccc(OCc2ccc(CN3CCOCC3)cc2C)c(-c2csc(N3CC[C@@H](C(=O)O)[C@@H](C)C3)n2)c1 [Compound 173] | > 64 | > 64 | 140 |  | 
Cc1ccc(OCc2ccc(CN3CCOCC3)cc2C)c(-c2csc(N3C4CCC3CC(C(=O)O)C4)n2)c1 (stereo not shown) [Compound 174] | > 66 | > 66 | 320 |  | 
Cc1ccc(OCc2ccc(CN3CCOCC3)cc2C)c(-c2csc(N(C)CCCC(=O)O)n2)c1 [Compound 179] | > 55 | > 55 | 990 |  | 
Cc1ccc(OCc2ccc(CN3CCOCC3)cc2C)c(-c2csc(N[C@H]3CC[C@@H](C(=O)O)C3)n2)c1 [Compound 181] | > 52 | > 52 | 3100 |  | 
Cc1ccc(OCc2ccc(CN3CCN(S(C)(=O)=O)CC3)cc2C)c(-c2csc(N3CCC(C(=O)O)CC3)n2)c1 [Compound 196] | 16 (≈ 26.7 µM) | 37 (≈ 61.8 µM) | 110 |  | 
Cc1ccc(OCc2ccc(CN3CCN(C(=O)C4CCOC4)CC3)cc2C)c(-c2csc(N3CCC(C(=O)O)CC3)n2)c1 (stereo not shown) [Compound 197] | 51 (≈ 82.4 µM) | > 71 | 230 |  | 
Cc1ccc(OCc2ccc(CN3CCN(C(=O)N(C)C)CC3)cc2C)c(-c2csc(N3CCC(C(=O)O)CC3)n2)c1 [Compound 199] | > 59 | > 59 | 140 |  | 
Cc1ccc(OCc2ccc(CN3CCN(S(=O)(=O)N(C)C)CC3)cc2C)c(-c2csc(N3CCC(C(=O)O)CC3)n2)c1 [Compound 200] | 8.5 (≈ 13.5 µM) | 30 (≈ 47.8 µM) | 80 |  | 
Cc1ccc(OCc2ccc(CN3CCOCC3)cc2C)c(-c2csc(N[C@H]3CC[C@@H](C(=O)O)CC3)n2)c1 [Compound 201] | 36 (≈ 67.2 µM) | > 53 | 960 |  | 
Cc1ccc(OCc2ccc(CN3CCOCC3)cc2C)c(-c2csc(N3CC(C(=O)O)C3)n2)c1 [Compound 215] | > 60 | > 60 | 1000 |  | 
Cc1ccc(OCc2ccc(CN3CCOCC3)cc2C)c(-c2csc(N3CCC4CC4(C(=O)O)CC3)n2)c1 (stereo not shown) [Compound 231] |  |  |  |  | 150
Cc1ccc(OCc2ccc(C(=O)N3CCCCC3)cc2C)c(-c2csc(N3CC[C@@H](C(=O)O)[C@H]3C)n2)c1 [Compound 240] |  |  |  |  | 36
Cc1ccc(OCc2ccc(C(=O)N3CCCCC3)cc2OC(F)(F)F)c(-c2csc(N3C[C@H]4CC[C@@H](C3)[C@H]4C(=O)O)n2)c1 [Compound 279] |  |  |  |  | 11
Cc1ccc(OCc2ccc(CN3CCN(C)C(=O)C3)cc2C)c(-c2csc(N3CCC(C(=O)O)CC3)n2)c1 [Compound 292] |  |  |  |  | 10
